Values of other authors, collected in patent US8372452B2, “Oral herbal composition for the treatment of oral candidiasis” (Piramal Life Sciences Limited, priority 2008, dated 2013).

System: oral pathogens (Enterococcus faecalis, Streptococcus salivarius, Streptococcus mitis, Streptococcus mutans, Streptococcus sobrinus, Streptococcus sanguinis and …)
Conditions: literature report, Silva M L et al. 2007

Substance: (−)-cubebin
- activity against oral pathogens (microorganisms): exhibited activity
